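Where inhibition never reached the appropriate level, the endpoint shown equals the highest concentration tested. Otherwise, values were interpolated linearly from a five-concentration, 48-hour dose response in 96-well plates. GI50: concentration for 50% inhibition of growth. At the TGI there is no net growth.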
Tests used:
Experiment in all cases: NCI anticancer screen, dose series, 48 h
HCT-15 colon = tested on: HCT-15 colon
HT29 colon = tested on: HT29 colon
MALME-3M melanoma = tested on: MALME-3M melanoma
MOLT-4 leukemia = tested on: MOLT-4 leukemia
NCI-H23 lung = tested on: NCI-H23 lung
NCI-H460 lung = tested on: NCI-H460 lung
OVCAR-3 ovarian = tested on: OVCAR-3 ovarian
OVCAR-8 ovarian = tested on: OVCAR-8 ovarian
SN12C renal = tested on: SN12C renal
TK-10 renal = tested on: TK-10 renal
UACC-257 melanoma = tested on: UACC-257 melanoma
UACC-62 melanoma = tested on: UACC-62 melanoma

## C[C@]12CC[C@@H]3c4ccc(O)cc4CC[C@H]3[C@@H]1CC[C@@H]2OC(=O)CCc1ccccc1
HCT-15 colon
  TGI: 33 µM
HT29 colon
  TGI: 40.7 µM
MALME-3M melanoma
  TGI: 34.8 µM
MOLT-4 leukemia
  TGI: 40.3 µM
NCI-H23 lung
  TGI: 34.6 µM
NCI-H460 lung
  TGI: 42.6 µM
OVCAR-3 ovarian
  TGI: 61.6 µM
OVCAR-8 ovarian
  TGI: 51 µM
SN12C renal
  TGI: 49.6 µM
TK-10 renal
  TGI: 33.9 µM
UACC-257 melanoma
  TGI: 35.2 µM
UACC-62 melanoma
  TGI: 28.8 µM

## COc1cc(C(=O)CC2OC(=O)C(Cl)=C2Cl)ccc1Cl (stereo unspecified)
HCT-15 colon
  TGI: > 100 µM
HT29 colon
  TGI: > 100 µM
MALME-3M melanoma
  TGI: > 100 µM
MOLT-4 leukemia
  TGI: > 100 µM
NCI-H23 lung
  TGI: > 100 µM
NCI-H460 lung
  TGI: > 100 µM
OVCAR-3 ovarian
  TGI: > 100 µM
OVCAR-8 ovarian
  TGI: > 100 µM
SN12C renal
  TGI: > 100 µM
TK-10 renal
  TGI: > 100 µM
UACC-257 melanoma
  TGI: > 100 µM
UACC-62 melanoma
  TGI: > 100 µM

## CO/N=C\c1cc(O)c(O)c(/C=N/OC)c1
HCT-15 colon
  TGI: > 100 µM
HT29 colon
  TGI: > 100 µM
MALME-3M melanoma
  TGI: > 100 µM
MOLT-4 leukemia
  TGI: > 100 µM
NCI-H23 lung
  TGI: 99.4 µM
NCI-H460 lung
  TGI: > 100 µM
OVCAR-3 ovarian
  TGI: > 100 µM
OVCAR-8 ovarian
  TGI: > 100 µM
SN12C renal
  TGI: > 100 µM
TK-10 renal
  TGI: > 100 µM
UACC-257 melanoma
  TGI: > 100 µM
UACC-62 melanoma
  TGI: > 100 µM

## O=C1c2ccccc2C(=O)c2c(Nc3cc4c5c(ccc6c7ccc8c9c(cc(Nc%10cccc%11c%10C(=O)c%10ccccc%10C%11=O)c(c3c56)c97)-c3ccccc3C8=O)C(=O)c3ccccc3-4)cccc21
HCT-15 colon
  TGI: > 100 µM
HT29 colon
  TGI: > 100 µM
MALME-3M melanoma
  TGI: > 100 µM
MOLT-4 leukemia
  TGI: > 100 µM
NCI-H23 lung
  TGI: > 100 µM
OVCAR-3 ovarian
  TGI: > 100 µM
OVCAR-8 ovarian
  TGI: > 100 µM
SN12C renal
  TGI: > 100 µM
TK-10 renal
  TGI: 96.1 µM
UACC-257 melanoma
  TGI: > 100 µM
UACC-62 melanoma
  TGI: > 100 µM

## O=C(c1ccccc1)C1C(c2ccccc2)N1S(=O)(=O)c1ccccc1 (stereo unspecified)
HCT-15 colon
  TGI: > 100 µM
HT29 colon
  TGI: > 100 µM
MALME-3M melanoma
  TGI: > 100 µM
MOLT-4 leukemia
  TGI: > 100 µM
NCI-H23 lung
  TGI: > 100 µM
OVCAR-3 ovarian
  TGI: > 100 µM
OVCAR-8 ovarian
  TGI: > 100 µM
SN12C renal
  TGI: > 100 µM
TK-10 renal
  TGI: > 100 µM
UACC-62 melanoma
  TGI: > 100 µM

## O=C1C=CC(=O)c2c(O)c(Br)c(Br)c(O)c21
HCT-15 colon
  TGI: 4.83 µM
HT29 colon
  TGI: 9.89 µM
MALME-3M melanoma
  TGI: 2.54 µM
MOLT-4 leukemia
  TGI: 0.549 µM
NCI-H23 lung
  TGI: 13.3 µM
NCI-H460 lung
  TGI: 34.1 µM
OVCAR-3 ovarian
  TGI: 15.8 µM
OVCAR-8 ovarian
  TGI: 25.7 µM
SN12C renal
  TGI: 18.4 µM
TK-10 renal
  TGI: 6.12 µM
UACC-257 melanoma
  TGI: 8.25 µM
UACC-62 melanoma
  TGI: 26.1 µM

## Cc1ccc(C2COc3cc(O)c(O)cc3C2)cc1 (stereo unspecified)
HCT-15 colon
  TGI: 31.8 µM
HT29 colon
  TGI: 149 µM
MALME-3M melanoma
  TGI: 48.9 µM
MOLT-4 leukemia
  TGI: 18.6 µM
NCI-H23 lung
  TGI: 65.6 µM
NCI-H460 lung
  TGI: 236 µM
OVCAR-3 ovarian
  TGI: 23.1 µM
OVCAR-8 ovarian
  TGI: 44.7 µM
SN12C renal
  TGI: 103 µM
UACC-257 melanoma
  TGI: 69.6 µM
UACC-62 melanoma
  TGI: 77.2 µM

## N#C/C(=C\c1ccc(Br)cc1)n1nnc2cc(Cl)c(Cl)cc21
HCT-15 colon
  GI50: 1670 nM
  TGI: 5.17 µM
HT29 colon
  GI50: 2180 nM
  TGI: 5.18 µM
MOLT-4 leukemia
  GI50: 2510 nM
  TGI: > 100 µM
NCI-H23 lung
  GI50: 2890 nM
  TGI: > 100 µM
OVCAR-3 ovarian
  GI50: 2100 nM
  TGI: 5.29 µM
OVCAR-8 ovarian
  GI50: 2170 nM
  TGI: > 100 µM
TK-10 renal
  GI50: 3.32 µM
  TGI: 6.71 µM
UACC-62 melanoma
  GI50: 1680 nM
  TGI: 3.63 µM

## OCc1cc2ccncc2c2c1[nH]c1ccccc12
HCT-15 colon
  TGI: 91.5 µM
HT29 colon
  TGI: 22.8 µM
MALME-3M melanoma
  TGI: 24.6 µM
MOLT-4 leukemia
  TGI: > 100 µM
NCI-H23 lung
  TGI: 48.2 µM
NCI-H460 lung
  TGI: 19.5 µM
OVCAR-8 ovarian
  TGI: 49.3 µM
SN12C renal
  TGI: 30.3 µM
TK-10 renal
  TGI: 67.7 µM
UACC-257 melanoma
  TGI: 51.3 µM
